# Experimental data published in patent publication US20120003270A1, “6-SUBSTITUTED ISOFLAVONOID COMPOUNDS AND USES THEREOF” (priority 2008, published 2012).
# What was measured:
# TXA2 = TXA2 synthesis in RAW 264.7 (ELISA); assay type: cell-based, mouse; conditions: LPS 50 ng/ml, 16 hrs
# Experimental: The mouse macrophage cell line RAW 264.7 was cultured in DMEM supplemented with foetal calf serum (FCS), 2 mM glutamine and 50 U/ml penicillin/streptomycin. Cells were treated with either test compounds (in 0.025% DMSO) or vehicle alone, and added one hour before 50 ng/ml LPS. After incubation for 16 hrs, culture media was collected for PGE2 or TXB2 measurement by ELISA (Cayman Chemical), and TNFα measurement using an ELISA (Becton Dickinson).
# [1] = system: low density lipoprotein (LDL); assay: Cu2+-induced oxidation of LDL (FOX assay); assay type: biochemical; design: lipid peroxide formation: unit not given here
# Experimental: Blood was collected by venipuncture and plasma separated by centrifugation. LDL was then isolated from plasma using a 4-step sodium chloride density gradient and ultracentrifuged at 200,000 g for 20 hours at 4° C. The collect LDL was purified by passage through gel filtration PD10 column to remove excess salt and EDTA, and stored in the dark at 4° C. to prevent auto-oxidation and used with two weeks of isolation. The LDL cholesterol content was measure using a standard enzymatic method and protein concentration determined by the Lowry method using BSA as the standard.
# On the day of each experiment a 2 mL aliquot of LDL was passed through a second PD10 column and diluted with chelex treated PBS (100 mM) to give a standard protein concentration of 0.1 mg/mL, ie final concentration per reaction. Oxidation reactions were initiated by the addition of freshly prepared Cu^2+ solution, such that the final concentration of CuSO4 was 5 μM. […] The extent of lipoprotein oxidation was determined by measuring the formation of lipid-peroxides on aliquots removed every 30-minute over a 3-hour period. Peroxides were determined at each time point by the ferrous oxidation-xylenol orange (FOX) assay using standard hydrogen peroxide curve (5 to 200 μM). Compound (1) was examined in at least two separate experiments performed on separate days.
# 5-lipoxygenase (5-LO) = assay: Synthesis of LTB4 and its metabolites in calcium ionophore-stimulated neutrophils (HPLC); assay type: cell-based, human
# Experimental: The pathway for LTB4 synthesis involves initial release of AA from phospholipids by a Ca-dependent PLA2. The free AA is then oxygenated at by 5-LO (requiring enzyme activation by FLAP) to generate an epoxide intermediate (LTA4). LTA4 is then converted to LTB4 by LTA4 hydrolase. LTB4 is metabolised (and deactivated) by a cytochrome P-(CYP) 450 […] to produce 20-hydroxy and 20-carboxy metabolites. These metabolites are also measured in the HPLC assay.
# Neutrophils were isolated from citrated human venous blood to >90% purity by centrifugation through Ficoll, dextran sedimentation and lysis of erythrocytes (Boyum 1986). Cells were washed in HEPES buffered Hanks solution (HBHS) and then suspended at 4.5 million cells/mL in HBHS containing 0.1% BSA (HBHS+BSA).
# Experiments had been carried out previously to optimise the stimulation of neutrophils by calcium ionophore. At 37° C., 900 μL of cell suspension (4 million cells) was incubated with 3′,7-dihydroxyisoflav-3-ene (or vehicle) in 10 μL DMSO for 5 min before addition of 100 μL of 25 ng/μL calcium ionophore (free acid form, Sigma) with 0.5% DMSO in HBHS containing 0.1% bovine serum albumin (HBHS+BSA). The cells were incubated for 10 min then pelleted by centrifugation at 1200× g at 4° C. for 5 min, and the cell free supernatant used to quantitate the levels of LTB4 and its metabolites.
# To each 900 μL aliquot of the supernatant, 25 μL of 2.5 ng/μL prostaglandin B2 (PGB2) in ethanol was added as internal standard. The solution was acidified to […] with 2M formic acid and the mixture extracted with 2 mL ethyl acetate and vigorous vortexing. The organic layer was collected and dried under nitrogen in a glass vial before being reconstituted in 50 μL of the reconstitution solution (water:methanol:acetonitrile at 2:1:1).
# Analysis was carried out using a HPLC system with a 125-4 LiChrospher®100 RP-18 (5 μm) column (Agilent Technologies) and a gradient system adapted from a published method (Mita et al. 1988) to separate LTB4, its oxidation products 20-hydroxy LTB4 (20-OH-LTB4) and 20-carboxy LTB4 (20-COOH-LTB4), as well as PGB2. At 1 ml/min flow rate, a combination of three different mobile phase solutions were used. UV absorbance was monitored at 270 nm, and LTB4 and its metabolites were quantitated by comparison of peak areas with that of internal standard and a standard curve prepared earlier.
compound,measurement,setting,value
O=C(O)C1CCCN1Cc1cc2c(cc1O)OCC(c1ccc(O)cc1)=C2 (stereo not shown) [Compound (3)],TXB2,TXA2; 1 μM,374.8 ± 132.29 pg/mL
same,TXB2,TXA2; 10 μM,287.04 ± 75.58 pg/mL
same,lipid peroxide formation,"[1]; Compound (3) 10 μM + Cu++ 5 μM, no LDL, 0 min",2.36 ± 5.25
same,lipid peroxide formation,"[1]; Compound (3) 10 μM + Cu++ 5 μM, no LDL, 30 min",−3.75 ± 3.02
same,lipid peroxide formation,"[1]; Compound (3) 10 μM + Cu++ 5 μM, no LDL, 60 min",−1.38 ± 2.64
same,lipid peroxide formation,"[1]; Compound (3) 10 μM + Cu++ 5 μM, no LDL, 90 min",−0.82 ± 2.31
same,lipid peroxide formation,"[1]; Compound (3) 10 μM + Cu++ 5 μM, no LDL, 120 min",−2.48 ± 2.55
same,lipid peroxide formation,"[1]; Compound (3) 10 μM + Cu++ 5 μM, no LDL, 150 min",−6.22 ± 6.83
same,IC50,"[1]; LDL 0.1 mg/mL, CuSO4 5 μM, read-out: IC50, concentration at which 50% of the LDL oxidation was inhibited",500 nM
same,lipid peroxide formation,"[1]; LDL 0.1 mg/ml + compound (3) 0.01 μM + Cu++ 5 μM, 0 min",5.55 ± 0.22
same,lipid peroxide formation,"[1]; LDL 0.1 mg/ml + compound (3) 0.01 μM + Cu++ 5 μM, 30 min",2.85 ± 2.80
same,lipid peroxide formation,"[1]; LDL 0.1 mg/ml + compound (3) 0.01 μM + Cu++ 5 μM, 60 min",25.92 ± 13.53
same,lipid peroxide formation,"[1]; LDL 0.1 mg/ml + compound (3) 0.01 μM + Cu++ 5 μM, 90 min",88.97 ± 3.03
same,lipid peroxide formation,"[1]; LDL 0.1 mg/ml + compound (3) 0.01 μM + Cu++ 5 μM, 120 min",131.94 ± 4.81
same,lipid peroxide formation,"[1]; LDL 0.1 mg/ml + compound (3) 0.01 μM + Cu++ 5 μM, 150 min",137.86 ± 26.03
same,lipid peroxide formation,"[1]; LDL 0.1 mg/ml + compound (3) 0.1 μM + Cu++ 5 μM, 0 min",5.62 ± 0.85
same,lipid peroxide formation,"[1]; LDL 0.1 mg/ml + compound (3) 0.1 μM + Cu++ 5 μM, 30 min",3.24 ± 1.93
same,lipid peroxide formation,"[1]; LDL 0.1 mg/ml + compound (3) 0.1 μM + Cu++ 5 μM, 60 min",18.89 ± 7.84
same,lipid peroxide formation,"[1]; LDL 0.1 mg/ml + compound (3) 0.1 μM + Cu++ 5 μM, 90 min",73.79 ± 1.40
same,lipid peroxide formation,"[1]; LDL 0.1 mg/ml + compound (3) 0.1 μM + Cu++ 5 μM, 120 min",138.28 ± 2.75
same,lipid peroxide formation,"[1]; LDL 0.1 mg/ml + compound (3) 0.1 μM + Cu++ 5 μM, 150 min",155.66 ± 21.85
same,lipid peroxide formation,"[1]; LDL 0.1 mg/ml + compound (3) 1.0 μM + Cu++ 5 μM, 0 min",7.38 ± 2.69
same,lipid peroxide formation,"[1]; LDL 0.1 mg/ml + compound (3) 1.0 μM + Cu++ 5 μM, 30 min",−2.09 ± 9.59
same,lipid peroxide formation,"[1]; LDL 0.1 mg/ml + compound (3) 1.0 μM + Cu++ 5 μM, 60 min",7.21 ± 4.53
same,lipid peroxide formation,"[1]; LDL 0.1 mg/ml + compound (3) 1.0 μM + Cu++ 5 μM, 90 min",7.13 ± 3.76
same,lipid peroxide formation,"[1]; LDL 0.1 mg/ml + compound (3) 1.0 μM + Cu++ 5 μM, 120 min",11.69 ± 7.30
same,lipid peroxide formation,"[1]; LDL 0.1 mg/ml + compound (3) 1.0 μM + Cu++ 5 μM, 150 min",79.63 ± 27.82
same,lipid peroxide formation,"[1]; LDL 0.1 mg/ml + compound (3) 10 μM + Cu++ 5 μM, 0 min",1.62 ± 4.14
same,lipid peroxide formation,"[1]; LDL 0.1 mg/ml + compound (3) 10 μM + Cu++ 5 μM, 30 min",2.59 ± 2.96
same,lipid peroxide formation,"[1]; LDL 0.1 mg/ml + compound (3) 10 μM + Cu++ 5 μM, 60 min",5.65 ± 2.55
same,lipid peroxide formation,"[1]; LDL 0.1 mg/ml + compound (3) 10 μM + Cu++ 5 μM, 90 min",4.40 ± 1.13
same,lipid peroxide formation,"[1]; LDL 0.1 mg/ml + compound (3) 10 μM + Cu++ 5 μM, 120 min",3.57 ± 2.23
same,lipid peroxide formation,"[1]; LDL 0.1 mg/ml + compound (3) 10 μM + Cu++ 5 μM, 150 min",4.15 ± 2.87
same,"20-COOH-LTB4, % of maximum release",5-lipoxygenase (5-LO); 0.1 μM,114.9%
same,"20-OH-LTB4, % of maximum release",5-lipoxygenase (5-LO); 0.1 μM,82.8%
same,"LTB4, % of maximum release",5-lipoxygenase (5-LO); 0.1 μM,93.6%
same,"20-COOH-LTB4, % of maximum release",5-lipoxygenase (5-LO); 1 μM,105.7%
same,"20-OH-LTB4, % of maximum release",5-lipoxygenase (5-LO); 1 μM,99.0%
same,"LTB4, % of maximum release",5-lipoxygenase (5-LO); 1 μM,97.0%
same,"20-COOH-LTB4, % of maximum release",5-lipoxygenase (5-LO); 10 μM,145.2%
same,"20-OH-LTB4, % of maximum release",5-lipoxygenase (5-LO); 10 μM,6.1%
same,"LTB4, % of maximum release",5-lipoxygenase (5-LO); 10 μM,0.0%
same,IC50,"5-lipoxygenase (5-LO); Neutrophil, human neutrophils, calcium ionophore, read-out: IC50 for the production of LTB4",5400 nM
